According to US20230162361A1, “ASSESSMENT OF SKIN TOXICITY IN AN IN VITRO TISSUE SAMPLES USING DEEP LEARNING” (Genentech, Inc., priority 2020, published 2023):
Like-named read-outs stand apart in the source and are kept apart here.

How the values were obtained:
[1] = system: skin; details: cited from earlier work; for Skin tox.: clinical skin toxicity (rash, pruritus, acne, dermatitis, alopecia, dry skin) in labels or publications; for clinical toxicity: clinical skin toxicity
[2] = cited from earlier work
[3] = system: reconstructed human epidermis (RHE) samples; assay: 3D in vitro reconstructed human epidermis (RHE) model, viable epidermal thickness measured with the machine-learning model after 4-day treatment
From the text: A decrease in epidermal thickness of the skin may be a toxicity indication for skin toxicities as well as for cutaneous disease. For example, one can calculate a percentage by dividing the epidermal thickness of the skin after the treatment by a drug compound by the epidermal thickness before the treatment. If the percentage is smaller than 10%, it may indicate very severe toxicity; if the percentage is between 10% and 50%, it may indicate severe toxicity; if the percentage is between 50% and […], it may indicate mild toxicity; and if the percentage is larger than 90%, it may indicate rare or no toxicity. There are few preclinical methods for evaluating in vivo skin toxicity prior to clinical trial. The last two decades have seen the advent of in vitro human skin models, which have a proven record of accurately predicting clinical skin toxicity. FIG. 3A illustrates an example reconstructed human epidermis (RHE) model 300. These reconstituted human epidermal (RHE) models 300 may be metabolically and mitotically active 3D models of the normal human epidermis derived from cultured human epidermal keratinocytes. The RHE models 300 may have in vivo-like morphology and growth characteristics. […] The RHE models 300 may have keratinocytes only but no dermis, vasculature or immune/inflammatory cells.
FIG. 5A illustrates an example annotation of an RHE sample 310 with tissue sections. […] After the epidermal area is identified, the thickness of the viable epidermal area may be computed, e.g., based on distance transformation. In particular embodiments, the median thickness value may be used to represent the thickness of the viable epidermal area for each tissue section and the average thickness of the two tissue sections of a RHE sample 310 may be used to represent a single RHE sample 310. FIG. 5B illustrates an example extraction of thickness of a tissue sample. […] The digital pathology image processing system 110 may then quantify, based on the centerline, a thickness value for each of the plurality of locations. […] This way, the thickness of each tissue sample (e.g., RHE sample 310) may be normalized. FIG. 5C illustrates an example normalization of the tissue thickness. […] The left subfigure of FIG. 5C may show the originally measured thickness whereas the right subfigure of FIG. 5C may show the normalized thickness. Although this disclosure describes calculating normalized thickness in a particular manner, this disclosure contemplates calculating normalized thickness in any suitable manner. As an example and not by way of limitation, the digital pathology image processing system may determine a plurality of stepwise thickness measurements along an axis determined based on the epidermal layer, calculate a length and area of the epidermal layer with the thickness being derived from them, and then calculate the normalized thickness accordingly.
The embodiments disclosed herein further conduct a retrospective study based on RHE samples 310 from five studies that evaluated the skin toxicity of various compounds. The 3D in vitro human skin model was used for all studies. A total of 31 compounds with known or suspected clinical skin toxicity were evaluated for skin toxicity, some of which were evaluated in more than one study. Upon receipt of the RHE samples 310, each tissue culture insert was transferred to a well of 6-well plate containing 1 mL/well of pre-warmed maintenance media and kept dry on top to maintain an air-liquid interface. The RHE samples 310 were equilibrated at 37° C., 5% CO2 overnight, and fed with fresh media the next day. One day later, the RHE samples 310 were subjected to 4-day daily basolateral treatment with test articles at various concentrations, or vehicle control DMSO at 0.5%.

[4] = clinical exposure, maximal free concentrations measured in plasma
[5] = marked *: plasma protein binding unavailable, total concentration used
[6] = mean, normalized to control, test concentration 2 uM
[7] = mean, normalized to control, test concentration 10 uM

## CN(C)C/C=C/C(=O)Nc1cc2c(Nc3ccc(F)c(Cl)c3)ncnc2cc1O[C@H]1CCOC1 [Afatinib]
[1]
  Skin tox.: Yes
  clinical toxicity: demonstrated clinical toxicity
[2]; [4]
  Cmax_free: 0.0042 µM
[3]
  change in epidermal thickness versus control (FIG. 11A): significant decrease in epidermal thickness
[3]; human, 4 days, 1 uM
  Normalized thickness: 0.70
[3]; human, 4 days, 10 uM
  Normalized thickness: 0.77

## Cc1nc(NC(=O)N2CCC[C@H]2C(N)=O)sc1-c1ccnc(C(C)(C)C(F)(F)F)c1 [Alpelisib]
[1]
  Skin tox.: Yes
  clinical toxicity: demonstrated clinical toxicity
[2]; [4]
  Cmax_free: 0.61 µM
[3]
  change in epidermal thickness versus control (FIG. 11A): significant decrease in epidermal thickness
[3]; human, 4 days, 0.32 uM
  Normalized thickness: 0.75
[3]; human, 4 days, 3.2 uM
  Normalized thickness: 0.45

## O=C(c1ccc(F)c(F)c1Nc1ccc(I)cc1F)N1CC(O)([C@@H]2CCCCN2)C1 [Cobimetinib]
[1]
  Skin tox.: Yes
  clinical toxicity: demonstrated clinical toxicity
[2]; [4]
  Cmax_free: 0.03 µM
[3]
  change in epidermal thickness versus control (FIG. 11A): significant decrease in epidermal thickness
[3]; human, 4 days, 0.02 uM
  Normalized thickness: 0.91
[3]; human, 4 days, 1 uM
  Normalized thickness: 0.71

## C#Cc1cccc(Nc2ncnc3cc(OCCOC)c(OCCOC)cc23)c1 [Erlotinib]
[1]
  Skin tox.: Yes
  clinical toxicity: demonstrated clinical toxicity
[2]; [4]
  Cmax_free: 0.38 µM
[3]
  change in epidermal thickness versus control (FIG. 11A): significant decrease in epidermal thickness
[3]; human, 4 days, 1 uM
  Normalized thickness: 0.53
[3]; human, 4 days, 2 uM
  Normalized thickness: 0.75
[3]; human, 4 days, 10 uM
  Normalized thickness: 0.41

## CC[C@H](Nc1ncnc2[nH]cnc12)c1nc2cccc(F)c2c(=O)n1-c1ccccc1 [Idelalisib]
[1]
  Skin tox.: Yes
[2]; [4]
  Cmax_free: 0.84 µM
[3]; human, 4 days, 0.08 uM
  Normalized thickness: 0.95
[3]; human, 4 days, 0.8 uM
  Normalized thickness: 1.00

## Cn1cc(-c2ccc3nnc(C(F)(F)c4ccc5ncccc5c4)n3n2)cn1 [Jnj-38877605]
[1]
  Skin tox.: No
[2]; [5]
  Cmax_free: 0.13* uM
[3]; [6]
  Normalized thickness: 0.82
[3]; [7]
  Normalized thickness: 0.91

## CS(=O)(=O)CCNCc1ccc(-c2ccc3ncnc(Nc4ccc(OCc5cccc(F)c5)c(Cl)c4)c3c2)o1 [Lapatinib]
[1]
  Skin tox.: Yes
  clinical toxicity: demonstrated clinical toxicity
[2]; [4]
  Cmax_free: 0.000039 µM
[3]
  change in epidermal thickness versus control (FIG. 11A): significant decrease in epidermal thickness
[3]; human, 4 days, 1 uM
  Normalized thickness: 0.66
[3]; human, 4 days, 10 uM
  Normalized thickness: 0.47

## C=CC(=O)Nc1cc(Nc2nccc(-c3cn(C)c4ccccc34)n2)c(OC)cc1N(C)CCN(C)C [Osimertinib]
[1]
  Skin tox.: Yes
  clinical toxicity: demonstrated clinical toxicity
[2]; [4]
  Cmax_free: 0.025 µM
[3]
  change in epidermal thickness versus control (FIG. 11A): significant decrease in epidermal thickness
[3]; human, 4 days, 0.3 uM
  Normalized thickness: 0.85
[3]; human, 4 days, 300 nM
  median normalized thickness: 0.80
[3]; human, 4 days, 1 uM
  Normalized thickness: 0.61
[3]; human, 4 days, 3 uM
  Normalized thickness: 0.45
[3]; human, 4 days, 10 uM
  Normalized thickness: 0.76

## CC(=O)c1c(C)c2cnc(Nc3ccc(N4CCNCC4)cn3)nc2n(C2CCCC2)c1=O [Palbociclib]
[1]
  Skin tox.: Yes
[3]; human, 4 days, 0.023 uM
  Normalized thickness: 1.02
[3]; human, 4 days, 0.23 uM
  Normalized thickness: 0.99

## OCCn1cc(-c2cnc3nnn(Cc4ccc5ncccc5c4)c3n2)cn1 [Pf-04217903]
[1]
  Skin tox.: No
  clinical toxicity: did not exhibit clinical toxicity
[2]; [4]
  Cmax_free: 0.015 µM
[3]; 10 µM
  normalized epidermal thickness decrease: greater than 20%
[3]; [6]
  Normalized thickness: 0.91
[3]; [7]
  Normalized thickness: 0.72
[3]; normalized viable epidermal thickness, multiple comparison, result in words
  change in epidermal thickness versus control (FIG. 11A): significant decrease in epidermal thickness

## CS(=O)(=O)N1CCN(Cc2cc3nc(-c4cccc5[nH]ncc45)nc(N4CCOCC4)c3s2)CC1 [Pictilisib]
[3]
  change in epidermal thickness versus control (FIG. 11A): significant decrease in epidermal thickness
[3]; human, 4 days, 0.02 uM
  Normalized thickness: 0.94
[3]; human, 4 days, 1 uM
  Normalized thickness: 0.46

## C=CC(=O)N1CCC(Oc2cc3c(Nc4ccc(Cl)c(Cl)c4F)ncnc3cc2OC)CC1 [Poziotinib]
[1]
  Skin tox.: Yes
  clinical toxicity: demonstrated clinical toxicity
[2]; [4]
  Cmax_free: 0.0021 µM
[3]
  change in epidermal thickness versus control (FIG. 11A): significant decrease in epidermal thickness
[3]; human, 4 days, 0.3 uM
  Normalized thickness: 0.72
[3]; human, 4 days, 1 uM
  Normalized thickness: 0.65
[3]; human, 4 days, 10 uM
  Normalized thickness: 0.73

## N#CC[C@H](C1CCCC1)n1cc(-c2ncnc3[nH]ccc23)cn1 [Ruxolitinib]
[1]
  Skin tox.: No
  clinical toxicity: did not exhibit clinical toxicity
[2]; [4]
  Cmax_free: 0.033 µM
[3]
  change in epidermal thickness versus control (FIG. 11A): significant decrease in epidermal thickness
[3]; human, 4 days, 2 uM
  Normalized thickness: 0.85
[3]; human, 4 days, 10 uM
  Normalized thickness: 0.81

## CNC(=O)c1cc(Oc2ccc(NC(=O)Nc3ccc(Cl)c(C(F)(F)F)c3)cc2)ccn1 [Sorafenib]
[1]
  Skin tox.: Yes
[2]; [4]
  Cmax_free: 0.07 µM
[3]
  change in epidermal thickness versus control (FIG. 11A): failed to cause any meaningful change in epidermal thickness
[3]; human, 4 days, 0.5 uM
  Normalized thickness: 0.87
[3]; human, 4 days, 5 uM
  Normalized thickness: 0.85

## C[C@@H]1CCN(C(=O)CC#N)C[C@@H]1N(C)c1ncnc2[nH]ccc12 [Tofacitinib]
[1]
  Skin tox.: No
  clinical toxicity: did not exhibit clinical toxicity
[3]
  change in epidermal thickness versus control (FIG. 11A): significant decrease in epidermal thickness
[3]; human, 4 days, 2 uM
  Normalized thickness: 0.84
[3]; human, 4 days, 10 uM
  Normalized thickness: 0.82

## COC(=O)Nc1nc2cc(C3(O)c4ccccc4C(=O)N3c3cc(Cl)ccc3C)ccc2[nH]1 (centres unmarked) [XL281]
[1]
  Skin tox.: No
[2]; [5]
  Cmax_free: 4.5* uM
[3]
  change in epidermal thickness versus control (FIG. 11A): increase in epidermal thickness
[3]; human, 4 days, 0.5 uM
  Normalized thickness: 1.14
[3]; human, 4 days, 5 uM
  Normalized thickness: 0.89
